In brackets after ≈: the same amount, converted by molar mass.
How the values were obtained:
Assay in all cases: Agar dilution MIC
[1] = system: Actinomyces odontolyticus; assay type: cell-based; conditions: 10 isolates
Actinomyces israelii = assay type: cell-based; conditions: 6 isolates
[2] = system: Anaerobiospirillum thomasii; assay type: cell-based; conditions: 13 isolates
[3] = system: Anaerobiospirillum succiniciproducens; assay type: cell-based; conditions: 3 isolates
Bacteroides gracilis = assay type: cell-based, Bacteroides gracilis (Campylobacter gracilis); conditions: Campylobacter gracilis, 11 isolates
Bacteroides tectum = assay type: cell-based; conditions: 22 isolates
Bacteroides ureolyticus = assay type: cell-based; conditions: Campylobacter ureolyticus, 17 isolates
Bilophila wadsworthia = assay type: cell-based; conditions: Bilophila wadsworthia, 16 isolates, agar supplemented with pyruvate
[4] = system: Clostridium clostridioforme; assay type: cell-based; conditions: 11 isolates
Clostridium inocuum = assay type: cell-based, Clostridium innocuum; conditions: Clostridium, 11 isolates
Clostridium ramosum = assay type: cell-based; conditions: 10 isolates
[5] = system: Fusobacterium spp group 1; assay type: cell-based; conditions: 19 isolates
[6] = system: Fusobacterium spp. group 2; assay type: cell-based, Fusobacterium mortiferum, necrogenes, ulcerans; conditions: Fusobacterium, 12 isolates
Fusobacterium russii = assay type: cell-based
Fusobacterium varium = assay type: cell-based; conditions: Fusobacterium varium, 17 isolates
[7] = system: Peptostreptococcus asaccharolyticus; assay type: cell-based; conditions: 11 isolates
[8] = system: Peptostreptococcus magnus; assay type: cell-based; conditions: 13 isolates
[9] = system: Peptostreptococcus micros; assay type: cell-based; conditions: 12 isolates
[10] = system: Peptostreptococcus prevotii; assay type: cell-based; conditions: 9 isolates
[11] = system: Porphyromonas asaccharolyticus; assay type: cell-based, Porphyromonas asaccharolytica; conditions: 11 isolates
Porphyromonas canoris = assay type: cell-based; conditions: 10 isolates
Porphyromonas gingivalis = assay type: cell-based; conditions: 13 isolates
Porphyromonas macaccae = assay type: cell-based; conditions: 13 isolates
Porphyromonas spp. = assay type: cell-based, Porphyromonas cangingivalis, cansulci, circumdentaria, levii; conditions: 11 isolates
Prevotella bivia = assay type: cell-based; conditions: 21 isolates
[12] = system: Prevotella buccae-oris group; assay type: cell-based; conditions: 22 isolates
[13] = system: Prevotella heparinolytica; assay type: cell-based; conditions: 16 isolates
Prevotella intermedia = assay type: cell-based; conditions: 11 isolates
[14] = system: Prevotella melaninogenica; assay type: cell-based; conditions: 12 isolates
[15] = system: Prevotella denticola/loeschii group; assay type: cell-based; conditions: 6 isolates
Veillonella spp. = assay type: cell-based; conditions: Veillonella, 24 isolates
[16] = read-out: Minimal Inhibitory Concentration 90% (MIC90)
[17] = read-out: Minimal Inhibitory Concentration 50% (MIC50)
[18] = Porphyromonas, read-out: Minimal Inhibitory Concentration 50% (MIC50)
[19] = Porphyromonas, read-out: Minimal Inhibitory Concentration 90% (MIC90)

MIC90 ([1]; Schaalia odontolytica, read-out: Minimal Inhibitory Concentration 90% (MIC90)): 4 µg/mL (≈ 9.61 µM)
MIC50 ([1]; Schaalia odontolytica, read-out: Minimal Inhibitory Concentration 50% (MIC50)): 4 µg/mL (≈ 9.61 µM)
MIC50 (Actinomyces israelii; Actinomyces israelii, read-out: Minimal Inhibitory Concentration 50% (MIC50)): 1 µg/mL (≈ 2.4 µM)
MIC50 ([2]; Anaerobiospirillum thomasii, read-out: Minimal Inhibitory Concentration 50% (MIC50)): 0.125 µg/mL (≈ 0.3 µM)
MIC90 ([2]; Anaerobiospirillum thomasii, read-out: Minimal Inhibitory Concentration 90% (MIC90)): 0.25 µg/mL (≈ 0.6 µM)
MIC50 ([3]; Anaerobiospirillum succiniciproducens, read-out: Minimal Inhibitory Concentration 50% (MIC50)): 1 µg/mL (≈ 2.4 µM)
MIC90 (Bacteroides gracilis; [16]): 0.5 µg/mL (≈ 1.2 µM)
MIC50 (Bacteroides gracilis; [17]): 0.03 µg/mL (≈ 0.0721 µM)
MIC90 (Bacteroides tectum; Bacteroides pyogenes, read-out: Minimal Inhibitory Concentration 90% (MIC90)): 0.125 µg/mL (≈ 0.3 µM)
MIC50 (Bacteroides tectum; Bacteroides pyogenes, read-out: Minimal Inhibitory Concentration 50% (MIC50)): 0.06 µg/mL (≈ 0.144 µM)
MIC90 (Bacteroides ureolyticus; [16]): 4 µg/mL (≈ 9.61 µM)
MIC50 (Bacteroides ureolyticus; [17]): 0.06 µg/mL (≈ 0.144 µM)
MIC90 (Bilophila wadsworthia; [16]): > 8 µg/mL
MIC50 (Bilophila wadsworthia; [17]): 0.5 µg/mL (≈ 1.2 µM)
MIC90 ([4]; Clostridium, read-out: Minimal Inhibitory Concentration 90% (MIC90)): 4 µg/mL (≈ 9.61 µM)
MIC50 ([4]; Clostridium, read-out: Minimal Inhibitory Concentration 50% (MIC50)): 4 µg/mL (≈ 9.61 µM)
MIC90 (Clostridium inocuum; [16]): 8 µg/mL (≈ 19.2 µM)
MIC50 (Clostridium inocuum; [17]): 0.5 µg/mL (≈ 1.2 µM)
MIC50 (Clostridium ramosum; Thomasclavelia ramosa, read-out: Minimal Inhibitory Concentration 50% (MIC50)): 0.5 µg/mL (≈ 1.2 µM)
MIC90 (Clostridium ramosum; Thomasclavelia ramosa, read-out: Minimal Inhibitory Concentration 90% (MIC90)): 2 µg/mL (≈ 4.8 µM)
MIC50 ([5]; Fusobacterium, GROUP1, read-out: Minimal Inhibitory Concentration 50% (MIC50)): 0.5 µg/mL (≈ 1.2 µM)
MIC90 ([5]; Fusobacterium, GROUP1, read-out: Minimal Inhibitory Concentration 90% (MIC90)): 4 µg/mL (≈ 9.61 µM)
MIC50 (Fusobacterium russii; Fusobacterium russii, read-out: Minimal Inhibitory Concentration 50% (MIC50)): 4 µg/mL (≈ 9.61 µM)
MIC90 (Fusobacterium russii; Fusobacterium russii, read-out: Minimal Inhibitory Concentration 90% (MIC90)): 4 µg/mL (≈ 9.61 µM)
MIC50 (Fusobacterium varium; [17]): 4 µg/mL (≈ 9.61 µM)
MIC90 (Fusobacterium varium; [16]): > 8 µg/mL
MIC50 ([7]; Peptoniphilus asaccharolyticus, read-out: Minimal Inhibitory Concentration 50% (MIC50)): 1 µg/mL (≈ 2.4 µM)
MIC90 ([7]; Peptoniphilus asaccharolyticus, read-out: Minimal Inhibitory Concentration 90% (MIC90)): 1 µg/mL (≈ 2.4 µM)
MIC50 ([8]; Finegoldia magna, read-out: Minimal Inhibitory Concentration 50% (MIC50)): 0.125 µg/mL (≈ 0.3 µM)
MIC90 ([8]; Finegoldia magna, read-out: Minimal Inhibitory Concentration 90% (MIC90)): 0.25 µg/mL (≈ 0.6 µM)
MIC50 ([9]; Parvimonas micra, read-out: Minimal Inhibitory Concentration 50% (MIC50)): 0.06 µg/mL (≈ 0.144 µM)
MIC90 ([9]; Parvimonas micra, read-out: Minimal Inhibitory Concentration 90% (MIC90)): 0.06 µg/mL (≈ 0.144 µM)
MIC50 ([10]; Anaerococcus prevotii, read-out: Minimal Inhibitory Concentration 50% (MIC50)): 0.25 µg/mL (≈ 0.6 µM)
MIC50 [11, 18]: 0.25 µg/mL (≈ 0.6 µM)
MIC90 [11, 19]: 0.25 µg/mL (≈ 0.6 µM)
MIC50 (Porphyromonas canoris; Porphyromonas canoris, read-out: Minimal Inhibitory Concentration 50% (MIC50)): 0.25 µg/mL (≈ 0.6 µM)
MIC90 (Porphyromonas canoris; Porphyromonas canoris, read-out: Minimal Inhibitory Concentration 90% (MIC90)): 0.5 µg/mL (≈ 1.2 µM)
MIC50 (Porphyromonas gingivalis; Porphyromonas gingivalis, read-out: Minimal Inhibitory Concentration 50% (MIC50)): 0.06 µg/mL (≈ 0.144 µM)
MIC90 (Porphyromonas gingivalis; Porphyromonas gingivalis, read-out: Minimal Inhibitory Concentration 90% (MIC90)): 0.06 µg/mL (≈ 0.144 µM)
MIC50 (Porphyromonas macaccae; [18]): 0.06 µg/mL (≈ 0.144 µM)
MIC90 (Porphyromonas macaccae; [19]): 0.125 µg/mL (≈ 0.3 µM)
MIC50 (Porphyromonas spp.; [18]): 0.25 µg/mL (≈ 0.6 µM)
MIC90 (Porphyromonas spp.; [19]): 1 µg/mL (≈ 2.4 µM)
MIC90 (Prevotella bivia; Prevotella bivia, read-out: Minimal Inhibitory Concentration 90% (MIC90)): 2 µg/mL (≈ 4.8 µM)
MIC50 (Prevotella bivia; Prevotella bivia, read-out: Minimal Inhibitory Concentration 50% (MIC50)): 2 µg/mL (≈ 4.8 µM)
MIC90 ([12]; Prevotella, read-out: Minimal Inhibitory Concentration 90% (MIC90)): 2 µg/mL (≈ 4.8 µM)
MIC50 ([12]; Prevotella, read-out: Minimal Inhibitory Concentration 50% (MIC50)): 1 µg/mL (≈ 2.4 µM)
MIC90 ([13]; Prevotella heparinolytica, read-out: Minimal Inhibitory Concentration 90% (MIC90)): 0.25 µg/mL (≈ 0.6 µM)
MIC50 ([13]; Prevotella heparinolytica, read-out: Minimal Inhibitory Concentration 50% (MIC50)): 0.125 µg/mL (≈ 0.3 µM)
MIC90 (Prevotella intermedia; Prevotella intermedia, read-out: Minimal Inhibitory Concentration 90% (MIC90)): 1 µg/mL (≈ 2.4 µM)
MIC50 (Prevotella intermedia; Prevotella intermedia, read-out: Minimal Inhibitory Concentration 50% (MIC50)): 0.5 µg/mL (≈ 1.2 µM)
MIC90 ([14]; Prevotella melaninogenica, read-out: Minimal Inhibitory Concentration 90% (MIC90)): 4 µg/mL (≈ 9.61 µM)
MIC50 ([14]; Prevotella melaninogenica, read-out: Minimal Inhibitory Concentration 50% (MIC50)): 1 µg/mL (≈ 2.4 µM)
MIC90 (Veillonella spp.; [16]): > 8 µg/mL
MIC50 (Veillonella spp.; [17]): 0.25 µg/mL (≈ 0.6 µM)
SMILES: N[C@@H]1[C@H]2CN(c3nc4c(cc3F)c(=O)c(C(=O)O)cn4-c3ccc(F)cc3F)C[C@@H]12 [Trovafloxacin]
Minimal Inhibitory Concentration Range [1]: 2 to 4 µg/mL
Minimal Inhibitory Concentration Range (Actinomyces israelii): 0.5 to 2 µg/mL
Minimal Inhibitory Concentration Range [2]: 0.06 to 0.5 µg/mL
Minimal Inhibitory Concentration Range [3]: 0.5 to 2 µg/mL
Minimal Inhibitory Concentration Range (Bacteroides tectum): 0.03 to 0.125 µg/mL
Minimal Inhibitory Concentration Range [4]: 1 to 8 µg/mL
Minimal Inhibitory Concentration Range (Clostridium ramosum): 0.25 to 8 µg/mL
Minimal Inhibitory Concentration Range [5]: 0.25 to 4 µg/mL
MIC50 [6, 17]: 4 µg/mL (≈ 9.61 µM)
MIC90 [6, 16]: 4 µg/mL (≈ 9.61 µM)
Minimal Inhibitory Concentration Range (Fusobacterium russii): 0.5 to 4 µg/mL
Minimal Inhibitory Concentration Range [7]: 0.5 to 2 µg/mL
Minimal Inhibitory Concentration Range [8]: 0.06 to 0.25 µg/mL
Minimal Inhibitory Concentration Range [9]: 0.03 to 0.125 µg/mL
Minimal Inhibitory Concentration Range [10]: 0.25 to 1 µg/mL
Minimal Inhibitory Concentration Range [11]: 0.03 to 0.25 µg/mL
Minimal Inhibitory Concentration Range (Porphyromonas canoris): 0.06 to 0.5 µg/mL
Minimal Inhibitory Concentration Range (Porphyromonas gingivalis): 0.03 to 0.06 µg/mL
Minimal Inhibitory Concentration Range (Porphyromonas macaccae): 0.03 to 0.125 µg/mL
Minimal Inhibitory Concentration Range (Porphyromonas spp.): 0.06 to 1 µg/mL
Minimal Inhibitory Concentration Range (Prevotella bivia): 1 to 4 µg/mL
Minimal Inhibitory Concentration Range [12]: 0.25 to 4 µg/mL
Minimal Inhibitory Concentration Range [13]: 0.125 to 0.25 µg/mL
Minimal Inhibitory Concentration Range (Prevotella intermedia): 0.06 to 1 µg/mL
Minimal Inhibitory Concentration Range [14]: 0.06 to 8 µg/mL
Minimal Inhibitory Concentration Range [15]: 0.06 to 4 µg/mL
MIC50 ([15]; Prevotella denticola, read-out: Minimal Inhibitory Concentration 50% (MIC50)): 1 µg/mL (≈ 2.4 µM)
